From patent publication US20200399238A1, “THERAPEUTIC AURONES” (MIDDLE TENNESSEE STATE UNIVERSITY, priority 2016, published 2020) come the findings set out here.

Read-outs that look alike come from different tables or passages of the source. A value given as a limit tells only on which side of the number the result lay.

Assay [1] deals with C. albicans (ATCC strain 90028). The assay can be described thus: Antifungal microdilution broth assay (PrestoBlue), C. albicans. The note with it: 100 μM; for inhibition at 100 µM: Candida albicans, ATCC90028, Table 4A, read-out: C. albicans inhibition (at 100 μM). It counts as cell-based, Candida albicans. How it is done: Sigma-Aldrich) was used as the base medium for testing. […] solution of morpholinepropanesulfonic acid (MOPS; Sigma-Aldrich) was added to the RPMI to a final concentration of 0.165 M for buffering (RPMI-MOPS). This medium was adjusted to a pH of 7.0 with 10 M NaOH and filter sterilized. C. albicans (ATCC strain 90028), C. [NT] strain 66032), and C. tropicalis (ATCC strain 750) were cultured on potato dextrose agar (Sigma-Aldrich) plates, and incubated at 35° C. for 24 hours. For antifungal testing, overnight colonies were adjusted to 1.5×10^3 cells/mL, hereafter referred to as the test inoculum. PrestoBlue® (Life Technologies, Invitrogen, Carlsbad, Calif.), a resazurin-based cell viability reagent that, in metabolically active cells, is reduced from blue, non-fluorescent resazurin, to red, fluorescent resorufin, was used to assess inhibition of yeast growth by the aurones. […] Following addition of aurone, plates were then incubated for 24 hours at 35° C. PrestoBlue was added to a final concentration of 10% in each well and fluorescence read at 560 nm excitation and 590 nm emission, per manufacturer instructions, using a SpectraMax M2e spectrophotometer (Molecular Devices, LLC, Sunnyvale, Calif.). To optimize the PrestoBlue reduction time, RFUs were collected at 15 minute intervals for 4 hours using a reference antifungal. […] IC50 determination was calculated using GraphPad Prism version 7.01 for Windows (GraphPad Software, Inc., La Jolla, Calif.) from the RFUs at dilution points. Calculations were made with a nonlinear regression after transforming the molar concentrations of the aurones into the logarithmic form. Graphing was accomplished utilizing the same program following a four parameter curve fitting sigmoidal plot of the data. All aurones and controls were tested in triplicate and all testing was repeated in at least three independent experiments.
On the technique in general: Dilution methods test growth across graded concentrations, often in twofold steps.

In assay [2] the test system is rat skeletal muscle cell line, L6. Nature of the assay: cells. In kind it is cell-based. The settings on record: Rattus norvegicus, weighted means of two or more independent trials, read-out: IC50 L6.
Assay [3] has as its system Trypanosoma cruzi Tulahuen cells expressing beta-galactosidase. The assay can be described thus: T. cruzi intracellular assay (beta-galactosidase, L6 host cells). The settings on record: Trypanosoma cruzi, TULAHUEN, weighted means of two or more independent trials.
Method: Trypanosoma cruzi Tulahuen cells expressing beta-galactosidase (Buckner et al., Antimicrob. Agents Chemother. 40 (1996) 2592-2597) were cultured using the L6 cell line as a host cell. Adherent L6 cultures were infected with freshly burst T. cruzi trypomastigotes. Approximately 4-6 days later freshly burst trypomastigotes were collected and used to maintain cultures For assays, trypomastigotes were centrifuged to a loose pellet and incubated for 3 hours to allow the trypomastigote forms to swim out of the pellet. Cells were adjusted for addition to intracellular or extracellular assays. […] For intracellular assays, cells were added to adherent L6 cells using an infection ratio of 1:1 and immediately treated with compounds. At 96 hours incubations, a solution containing chlorophenol-red-B-D-beta-galactopyranosidase (Sigma) and a lysis agent were added. After an additional 2 hour incubation, a spectrophotometer was used to quantify the resulting color change (or lack thereof) which was used to calculate inhibition.
The percentage of cell inhibition was calculated using the formula: Percent Inhibition=1−((Treated Sample value−Medium only value)/(Untreated value−Medium only value))×100. Results are expressed as the mean of two or more independent trials.
Where [4] appears, read: read-out: IC50 TC-I, Table 3C, intracellular T. cruzi.

In the case of `O=C1/C(=C/c2c[nH]c3ccccc23)Oc2ccccc21` [Sample 9062], in assay [1], the inhibition (commonly the drop in the measured response relative to a control, in per cent) at 100 µM was 16.4%.
The same measure, in the same setting: for `O=C1/C(=C/c2ccc[nH]2)Oc2cc(O)ccc21` [Sample 2906] the value was 27.5%.
As for `COc1ccc(/C=C2\Oc3ccccc3C2=O)cc1O` [Sample 9078], in assay [2] (Table 3A), the IC50 – broadly, the concentration that gives 50% inhibition – amounted to 70.7 µM. Further, the inhibition at 100 µM in assay [1] turned out to be 45.6%.
With `COc1ccc(/C=C2\Oc3c(ccc(O)c3O)C2=O)cc1O` [Sample 1009], the inhibition at 100 µM in assay [1] was found to be 99.4%.
Turning to `O=C1/C(=C/c2ccc(Br)cc2)Oc2cc(O)ccc21` [Sample 2905], in assay [1], the inhibition at 100 µM was determined as 16.6%.
The same measure, in the same setting: the value for `N#Cc1ccc(/C=C2\Oc3cc(O)ccc3C2=O)cc1` [Sample 9076] was 7.5%.
`O=C1/C(=C/c2ccco2)Oc2ccccc21` [Sample 2023]: the inhibition at 100 µM in assay [1] came to 88.5%.
Same read-out and setting: the value for `O=C1/C(=C/c2cccs2)Oc2c1ccc(O)c2O` [Sample 1001] was 26%.
As to `O=C1/C(=C/c2cc(Br)cs2)Oc2ccccc21` [Sample 9061], in assay [1], the inhibition at 100 µM came to 3.1%.
Same read-out and setting: for `COc1cc(OC)c2c(c1)O/C(=C\c1ccc(C)cc1)C2=O` [Sample 7000] the value was 45.6%.
For the molecule `O=C1/C(=C/C=C/c2ccccc2)Oc2ccccc21` [Sample 2013], the results for the IC50 in assay [2] (Table 3C) and in assay [3] (setting [4]) were 58 µM and 14.1 µM, respectively. Also, the inhibition at 100 µM in assay [1] came out at 64.6%.
In the case of `COc1ccc(/C=C2\Oc3cc(O)ccc3C2=O)cc1O` [Sample 2911], the inhibition at 100 µM in assay [1] was determined as 40%.
For the molecule `O=C1/C(=C/c2ccc(Br)cc2)Oc2c1ccc(O)c2O` [Sample 1005], the inhibition at 100 µM in assay [1] came out at 43.9%.
As for `O=C1/C(=C/c2cccc(C(F)(F)F)c2)Oc2ccccc21` [Sample 9085], the IC50 was 73.4 µM in assay [2] (Table 3A) and 11.1 µM in assay [3] (read-out: IC50 TC-I, Table 3A). In assay [1], the inhibition at 100 µM amounted to 20.2%.
As to `O=C1/C(=C/c2ccc(Br)cc2)Oc2ccccc21` [Sample 2009], the 50% inhibitory concentration (IC50) in assay [2] (Table 3A) was > 100 µM; in assay [3] (read-out: IC50 TC-I, Table 3A) it was 11.4 µM. For the same molecule, in assay [1], the inhibition at 100 µM was 12.3%.
As for `COc1cc(OC)c2c(c1)O/C(=C\c1ccc([N+](=O)[O-])cc1)C2=O` [Sample 7001], the inhibition at 100 µM in assay [1] is 12.6%.
With `Cc1ccccc1/C=C1\Oc2ccccc2C1=O` [Sample 9057], the IC50 in assay [2] (Table 3A) amounted to 99.6 µM; in assay [3] (read-out: IC50 TC-I, Table 3A) it was 26.3 µM. In assay [1], the inhibition at 100 µM amounted to 33.6%.
Take `O=C1/C(=C/c2cccs2)Oc2cc(O)ccc21` [Sample 2901]: in assay [1], the inhibition at 100 µM amounted to 46.1%.
As for `O=C1/C(=C/c2ccc(CO)o2)Oc2ccccc21` [Sample 9067], the inhibition at 100 µM in assay [1] was determined as 17.6%.
With `Cc1cccc(/C=C2\Oc3ccccc3C2=O)c1` [Sample 9064], the IC50 came out at 79.9 µM in assay [2] (Table 3A) and 37.9 µM in assay [3] (read-out: IC50 TC-I, Table 3A). Also, the inhibition at 100 µM in assay [1] turned out to be 32.1%.
In the same order, the values of `CCc1ccc(/C=C2\Oc3ccccc3C2=O)cc1` [Sample 8001] are > 100 µM, 11.4 µM and 22.8%.
As for `O=C1/C(=C/c2cccc3[nH]ccc23)Oc2ccccc21` [Sample 9063], the inhibition at 100 µM in assay [1] was determined as 24%.
In the case of `O=C1/C(=C/c2ccccc2O)Oc2ccccc21` [Sample 9088], the concentration for half-maximal inhibition (IC50) in assay [2] (Table 3A) is > 100 µM; in assay [3] (read-out: IC50 TC-I, Table 3A), 18.4 µM. Also, the inhibition at 100 µM in assay [1] was 1%.
For `O=C1/C(=C/c2ccc([N+](=O)[O-])cc2)Oc2ccccc21` [Sample 2010], in that order: 249 µM, 20 µM and 3.3%.
On to `O=C1/C(=C/c2ccc[nH]2)Oc2ccccc21` [Sample 2021], for which the inhibition at 100 µM in assay [1] came to 78.8%.
`O=C1/C(=C/c2cccc([N+](=O)[O-])c2)Oc2ccccc21` [Sample 2015]: the IC50 in assay [2] (Table 3A) was 226 µM; in assay [3] (read-out: IC50 TC-I, Table 3A), 22.6 µM. In assay [1], the inhibition at 100 µM amounted to 2.2%.
In the case of `O=C1/C(=C/c2cc(Br)c(Br)s2)Oc2ccccc21` [Sample 9050], the inhibition at 100 µM in assay [1] came to 37.4%.
In the case of `CC(C)c1ccc(/C=C2\Oc3ccccc3C2=O)cc1` [Sample 8002], the IC50 in assay [2] (Table 3A) was found to be 89 µM; in assay [3] (read-out: IC50 TC-I, Table 3A), 16.6 µM. Moreover, the inhibition at 100 µM in assay [1] was 26.6%.
For `N#Cc1ccc(/C=C2\Oc3ccccc3C2=O)cc1` [Sample 2014], in that order: 239 µM, 23.5 µM and 50.5%.
For `COc1cc(Br)c(/C=C2\Oc3ccccc3C2=O)cc1OC` [Sample 9056], in that order: > 100 µM, 36 µM and 12.5%.
In the same order, the values of `COc1cc(/C=C2\Oc3ccccc3C2=O)ccc1O` [Sample 9053] are > 200 µM, > 50 µM and 11.2%.
For the molecule `COc1ccc2c(c1)O/C(=C\c1ccc(C)cc1)C2=O` [Sample 5002], in assay [1], the inhibition at 100 µM was 37.6%.
Consider `O=C1/C(=C/c2ccc(-c3ccccc3)cc2)Oc2ccccc21` [Sample 2018], for which the IC50 in assay [2] (Table 3C) was 298 µM; in assay [3] (setting [4]), 34.4 µM. In addition, the inhibition at 100 µM in assay [1] worked out at 59.8%.
As for `COc1ccc2c(c1)O/C(=C\c1ccc(Br)cc1)C2=O` [Sample 5005], the inhibition at 100 µM in assay [1] worked out at 22.4%.
As for `COc1cc(/C=C2\Oc3ccccc3C2=O)cc(OC)c1OC` [Sample 2002], the IC50 was > 100 µM in assay [2] (Table 3A) and > 50 µM in assay [3] (read-out: IC50 TC-I, Table 3A). For the same molecule, the inhibition at 100 µM in assay [1] turned out to be 8.8%.
For `O=C1/C(=C/c2ccc(C(F)(F)F)cc2)Oc2ccccc21` [Sample 9084], in that order: > 400 µM, 9.38 µM and 17.6%.
On to `Cc1ccc(/C=C2\Oc3cc(O)ccc3C2=O)cc1` [Sample 2904], for which the inhibition at 100 µM in assay [1] is 20%.
With `O=C1/C(=C/c2ccc(O)cc2)Oc2ccccc21` [Sample 9068], the IC50 in assay [2] (Table 3A) was > 100 µM; in assay [3] (read-out: IC50 TC-I, Table 3A) it was > 50 µM. The inhibition at 100 µM in assay [1] was found to be 11.1%.
For the molecule `COc1ccc2c(c1)O/C(=C\c1ccc[nH]1)C2=O` [Aurone 5004], the “C. albicans inhibition (at 100 μM)” value in assay [1] (Table 4A) is 14.7%.
Consider `CN(C)c1ccc(/C=C2\Oc3ccccc3C2=O)cc1` [Sample 9087], for which the IC50 in assay [2] (Table 3C) stood at 144 µM; in assay [3] (setting [4]) it was 5.38 µM. The inhibition at 100 µM in assay [1] amounted to 31.2%.
Consider `COc1ccc2c(c1)O/C(=C\c1ccc(C#N)cc1)C2=O` [Sample 5006], for which the inhibition at 100 µM in assay [1] worked out at 19.4%.
For the molecule `O=C1/C(=C/c2ncc[nH]2)Oc2ccccc21` [Sample 2026], the inhibition at 100 µM in assay [1] was determined as 43.8%.
As for `O=C1/C(=C/c2ccccc2C(F)(F)F)Oc2ccccc21` [Sample 9086], the IC50 in assay [2] (Table 3A) was found to be 130 µM; in assay [3] (read-out: IC50 TC-I, Table 3A), 18.5 µM. For the same molecule, the inhibition at 100 µM in assay [1] was determined as 14.3%.
As for `COc1ccc2c(c1)O/C(=C\c1ccc[nH]1)C2=O` [Aurone 5003], in assay [1], the inhibition at 100 µM turned out to be 12.4%.
Take `COc1ccc(/C=C2\Oc3cc(O)ccc3C2=O)c(OC)c1OC` [Sample 2912]: the inhibition at 100 µM in assay [1] amounted to 54.8%.
Regarding `N#Cc1cccc(/C=C2\Oc3ccccc3C2=O)c1` [Sample 9070], the IC50 in assay [2] (Table 3A) was > 200 µM; in assay [3] (read-out: IC50 TC-I, Table 3A), 16.7 µM. For the same molecule, the inhibition at 100 µM in assay [1] was 14.7%.
For `COc1cccc(/C=C2\Oc3ccccc3C2=O)c1O` [Sample 9055], in that order: > 100 µM, > 50 µM and 16.7%.
In the same order, the values of `COc1ccc(/C=C2\Oc3ccccc3C2=O)c(OC)c1OC` [Sample 2001] are > 100 µM, > 50 µM and 21.9%.
`Cc1ccc(/C=C2\Oc3ccc(Br)cc3C2=O)cc1` [Sample 6000]: the inhibition at 100 µM in assay [1] was 6.1%.
As for `COc1ccc(/C=C2\Oc3ccccc3C2=O)cc1OC` [Sample 2011], the half-maximal inhibitory concentration (IC50) in assay [2] (Table 3A) amounted to 51.9 µM; in assay [3] (read-out: IC50 TC-I, Table 3A), 21.9 µM. The inhibition at 100 µM in assay [1] was 14.2%.
`O=C1/C(=C/c2sccc2Br)Oc2ccccc21` [Sample 9060]: the inhibition at 100 µM in assay [1] was 7.5%.
Take `O=C1/C(=C/c2cccs2)Oc2ccccc21` [Sample 2004]: the inhibition at 100 µM in assay [1] was found to be 65.9%.
